The NIST ThermoML archive (doi:10.1021/acs.jced.8b00729)
± gives the expanded uncertainty stated by the source.

Conditions: Gamma attenuation method

A mass density (267.3 K, 1480 kPa, Liquid) of 961.5 ± 15 kg/m3, a mass density (267.3 K, 6000 kPa, Liquid) of 962.3 ± 15 kg/m3 and a mass density (267.9 K, 700 kPa, Liquid) of 960.4 ± 15 kg/m3 were found for `C1C[C@@H]2[C@H]3CC[C@H](C3)[C@@H]2C1` [exo-tetrahydrodicyclopentadiene] in this work. For the same compound, the mass density (267.9 K, 3060 kPa, Liquid) was 962.1 ± 15 kg/m3, the mass density (289.1 K, 6000 kPa, Liquid) was 952 ± 15 kg/m3 and the mass density (290.2 K, 1480 kPa, Liquid) was 939.1 ± 15 kg/m3. It also gave a mass density (290.9 K, 700 kPa, Liquid) of 937.8 ± 15 kg/m3, a mass density (292.8 K, 3060 kPa, Liquid) of 940.4 ± 15 kg/m3 and a mass density (307 K, 700 kPa, Liquid) of 924.7 ± 15 kg/m3. It also gave a mass density (307.5 K, 1480 kPa, Liquid) of 928.1 ± 15 kg/m3, a mass density (308.7 K, 3060 kPa, Liquid) of 930.1 ± 15 kg/m3 and a mass density (309 K, 6000 kPa, Liquid) of 940.8 ± 15 kg/m3. It also gave a mass density (335.4 K, 6000 kPa, Liquid) of 918.1 ± 15 kg/m3, a mass density (336.6 K, 3060 kPa, Liquid) of 911.5 ± 15 kg/m3 and a mass density (337.1 K, 700 kPa, Liquid) of 908.7 ± 15 kg/m3. It also gave a mass density (337.2 K, 1480 kPa, Liquid) of 910.1 ± 15 kg/m3, a mass density (368.4 K, 700 kPa, Liquid) of 881.1 ± 15 kg/m3 and a mass density (369.6 K, 1480 kPa, Liquid) of 884.2 ± 15 kg/m3. It also gave a mass density (371.3 K, 3060 kPa, Liquid) of 884.3 ± 15 kg/m3, a mass density (373.9 K, 6000 kPa, Liquid) of 893.8 ± 15 kg/m3 and a mass density (391.4 K, 6000 kPa, Liquid) of 883.9 ± 15 kg/m3. The mass density (391.9 K, 700 kPa, Liquid) was 861.9 ± 15 kg/m3, the mass density (394.8 K, 1480 kPa, Liquid) was 863.2 ± 15 kg/m3 and the mass density (394.8 K, 3060 kPa, Liquid) was 864.7 ± 15 kg/m3. The mass density (430.8 K, 6000 kPa, Liquid) was 850.6 ± 15 kg/m3, the mass density (431.4 K, 700 kPa, Liquid) was 824.8 ± 15 kg/m3 and the mass density (431.4 K, 1480 kPa, Liquid) was 832.6 ± 15 kg/m3. For the same compound, the mass density (431.4 K, 3060 kPa, Liquid) was 834.1 ± 15 kg/m3, the mass density (453.2 K, 3060 kPa, Liquid) was 820.5 ± 15 kg/m3 and the mass density (453.8 K, 700 kPa, Liquid) was 801.2 ± 15 kg/m3. The mass density (454.4 K, 1480 kPa, Liquid) was 815.4 ± 15 kg/m3, the mass density (454.6 K, 6000 kPa, Liquid) was 829.8 ± 15 kg/m3 and the mass density (483.1 K, 1480 kPa, Liquid) was 796.7 ± 15 kg/m3. It also gave a mass density (483.8 K, 700 kPa, Liquid) of 779.5 ± 15 kg/m3, a mass density (485.1 K, 3060 kPa, Liquid) of 800.4 ± 15 kg/m3 and a mass density (485.9 K, 6000 kPa, Liquid) of 807 ± 15 kg/m3. It also gave a mass density (510 K, 700 kPa, Liquid) of 759.3 ± 15 kg/m3, a mass density (510.1 K, 1480 kPa, Liquid) of 772.1 ± 16 kg/m3 and a mass density (510.3 K, 3060 kPa, Liquid) of 783.9 ± 15 kg/m3. It also gave a mass density (512.1 K, 6000 kPa, Liquid) of 777.4 ± 16 kg/m3, a mass density (529.9 K, 3060 kPa, Liquid) of 756 ± 15 kg/m3 and a mass density (530.4 K, 1480 kPa, Liquid) of 743 ± 15 kg/m3. For the same compound, the mass density (531.9 K, 6000 kPa, Liquid) was 752.2 ± 15 kg/m3, the mass density (532.4 K, 700 kPa, Liquid) was 737.7 ± 17 kg/m3 and the mass density (562.1 K, 700 kPa, Liquid) was 646.3 ± 18 kg/m3. For the same compound, the mass density (563.8 K, 1480 kPa, Liquid) was 716.9 ± 16 kg/m3, the mass density (564.1 K, 3060 kPa, Liquid) was 726.9 ± 16 kg/m3 and the mass density (566.8 K, 6000 kPa, Liquid) was 719.2 ± 15 kg/m3. The mass density (603.4 K, 700 kPa, Gas) was 25.5 ± 5.2 kg/m3, the mass density (617.6 K, 1480 kPa, Gas) was 153.4 ± 11 kg/m3 and the mass density (623.8 K, 6000 kPa, Liquid) was 661.1 ± 16 kg/m3. The mass density (627.1 K, 3060 kPa, Liquid) was 633.8 ± 16 kg/m3, the mass density (651.6 K, 700 kPa, Gas) was 22.9 ± 5 kg/m3 and the mass density (651.9 K, 3060 kPa, Liquid) was 590.9 ± 16 kg/m3. For the same compound, the mass density (652.4 K, 6000 kPa, Liquid) was 615.5 ± 16 kg/m3, the mass density (652.9 K, 1480 kPa, Gas) was 55.3 ± 7.3 kg/m3 and the mass density (681.8 K, 6000 kPa, Liquid) was 579.7 ± 16 kg/m3. The mass density (682.7 K, 700 kPa, Gas) was 29.4 ± 5 kg/m3, the mass density (683.2 K, 1480 kPa, Gas) was 57.8 ± 5 kg/m3 and the mass density (685 K, 3060 kPa, Gas) was 193.2 ± 9.5 kg/m3. The mass density (714 K, 6000 kPa, Gas) was 465.2 ± 25 kg/m3, the mass density (715 K, 3060 kPa, Gas) was 124.1 ± 7.3 kg/m3 and the mass density (715.8 K, 1480 kPa, Gas) was 58 ± 5 kg/m3. The mass density (730.2 K, 700 kPa, Gas) was 19.5 ± 5 kg/m3, the mass density (743.7 K, 3060 kPa, Gas) was 104.8 ± 5.3 kg/m3 and the mass density (743.8 K, 6000 kPa, Gas) was 256.7 ± 19 kg/m3. For the same compound, the mass density (744 K, 1480 kPa, Gas) was 52.4 ± 5 kg/m3, the mass density (744.7 K, 700 kPa, Gas) was 19.7 ± 5 kg/m3 and the mass density (771.9 K, 700 kPa, Gas) was 26.4 ± 5 kg/m3. For the same compound, the mass density (773.7 K, 1480 kPa, Gas) was 50.2 ± 5 kg/m3, the mass density (773.7 K, 6000 kPa, Gas) was 152.1 ± 8.3 kg/m3 and the mass density (774 K, 3060 kPa, Gas) was 96.1 ± 5.1 kg/m3. For the same compound, the mass density (803.3 K, 700 kPa, Gas) was 24.4 ± 5 kg/m3, the mass density (803.8 K, 3060 kPa, Gas) was 87.6 ± 5.1 kg/m3 and the mass density (804 K, 1480 kPa, Gas) was 47.9 ± 5 kg/m3. It also gave a mass density (804.1 K, 6000 kPa, Gas) of 142 ± 5.3 kg/m3, a mass density (833 K, 700 kPa, Gas) of 25.4 ± 5 kg/m3 and a mass density (833.3 K, 1480 kPa, Gas) of 52.1 ± 5 kg/m3. The mass density (833.4 K, 6000 kPa, Gas) was 120.1 ± 5.2 kg/m3, the mass density (833.5 K, 3060 kPa, Gas) was 83.9 ± 5.1 kg/m3 and the mass density (872.2 K, 3060 kPa, Gas) was 70.8 ± 5.2 kg/m3. The mass density (872.5 K, 1480 kPa, Gas) was 46.1 ± 5.1 kg/m3, the mass density (873.3 K, 700 kPa, Gas) was 24.4 ± 5 kg/m3 and the mass density (873.4 K, 6000 kPa, Gas) was 110.1 ± 5.1 kg/m3.
